What was measured:
[1] = rat, in vivo
From the text: (§3) Rat bladders (5 groups of rats, n=3/group) were surgically catheterized under anesthesia and the catheter was externalized, tunneled subcutaneously, and connected to a vascular access harness (VAH) in the neck. […] Plasma and bladder samples were collected at all time points.

ERK1/2 phosphorylation = assay: pERK/ERK in orthotopic bladder UM-UC-1 tumors by capillary immunoblotting; format: in vivo, nude rats
From the text: The signals for pERK1/2 were divided by the total ERK1/2 signal in the same sample and the mean of the pERK1/2 values for the corresponding vehicle-treated samples was set at a relative value of 1. At each timepoint, the pERK/ERK ratio for each tumor sample was divided by the mean pERK/ERK ratio derived from the corresponding control samples. There was 1 exception, as there were no vehicle-treated samples at the 120-hour timepoint, the pERK/ERK ratios for the erdafitinib-treated samples at the 120-hour timepoint were divided by the mean of the 48-hour vehicle-treated group.

Stability in human urine = format: in vitro ADME; conditions: freshly collected human urine, 37° C.
Procedure: (§1) At the end of 6-hours post-dialysis incubation, drug was analyzed and the recovery was calculated against the spiked concentrations.

in vitro [2] = conditions: human, bladder tissue
[3] = Stability in minipig urine; format: in vitro ADME; conditions: freshly collected minipig urine, 37° C.
Procedure: as §1

in vitro [4] = conditions: bladder tumor tissue
[5] = In vitro release of prototype permeation systems in simulated urine (Table 5); format: physicochemical; conditions: simulated urine at various pHs
[6] = In vitro protein binding in minipig urine; format: in vitro ADME
Procedure: (§2) Albuminuria/proteinuria had minimal effect on % free form in urine.
as §1

[7] = system: orthotopic UM-UC-1 bladder tumors; assay: Continuous bladder perfusion, orthotopic UM-UC-1 bladder cancer model
Procedure: Perfusion studies: The bladders of the study animals were cannulated on Day 1 and the animals were allowed to recover for 3 days. On Day 5, UM-UC-1 cells (2×10^6 cells) were injected into the lateral wall of each bladder. […] Based on the in vitro results, target urine concentrations of 0.5, 1.0, and 5.0 μg/mL were used in the perfusion experiments. Body weight, daily urine production, and daily water consumption were recorded. At necropsy, a plasma sample, bladder photographs, and bladder weight measurements were recorded.
The percent reduction in relative tumor weight between the control group and the drug perfusion groups was determined as an initial measure of efficacy. Bladder tissue and tumor samples were also submitted for analysis of FGFR signaling activity by determining the phosphorylated fibroblast growth factor receptor substrate (FRS)2a levels and the pERK to ERK ratio.

[8] = system: orthotopic RT-112 bladder tumor; assay: Continuous bladder perfusion, RT-112 implanted into the bladder wall
From the text: Perfusion studies: The experimental study design was the same as described in Example 11 (FIG. 12), except that the perfusions were continued until the time of necropsy on Day 14.

[9] = urine
From the text: On Day −7 a catheter was surgically placed in the bladder of each animal. The distal end of the catheter was anchored to a subcutaneous site and attached to a vascular access port (VAP). The port was secured and the animals were allowed to recover. Each animal was subsequently fitted with a portable infusion pump that was attached to the bladder catheter via the VAP. […] All excreted urine was collected in 24-hour intervals through Day 6 or 8. Blood samples were collected daily on study Days 1 to 8. Bladder tissue samples were collected from each animal at necropsy.

in vitro [10] = conditions: rat, bladder tissue
in vivo = conditions: female, Sprague-Dawley, rat
From the text: as §3

[11] = In vitro release (IVR) of permeation prototypes in simulated urine; format: physicochemical; conditions: highest release rates at pH 5, significantly reduced at pH 8
Procedure: The drug formats evaluated included erdafitinib free base, erdafitinib free base plus HP-β-CD and erdafitinib salts, e.g. HCl salt.
The pH range for normal human urine is in the 5.5 to 7 range, but some disease states can result in higher urine pH values (pH 8). […] The base material for this tubing could be either AR-75A-B20 or AC-4075A-B20.
Drug and device constituents are described in Tables 11 and 12, respectively. In vitro release (IVR) testing was performed with both prototypes, using simulated urine at 3 different pH ranges as the release media: pH 5, 6.8, and 8 (n=3 systems tested in each media).

[12] = Solubility as a function of pH; format: physicochemical; conditions: normal urine pH range of 5.5 to 7
[13] = In vitro protein binding in human urine; format: in vitro ADME
Procedure: as §2, §1

[14] = In vitro protein binding in rat urine; format: in vitro ADME
Procedure: as §2, §1

Stability in rat urine = format: in vitro ADME; conditions: freshly collected rat urine, 37° C.
Procedure: as §1

[15] = rats dosed orally, 2 and 7 hours
Procedure: Extracellular signal-regulated kinase (ERK)1/2 phosphorylation was assessed as a PD marker for FGFR kinase inhibition in tumors at various time points post administration/installation.

in vitro [16] = conditions: minipig, bladder tissue
[17] = In vitro permeation screening of device materials; format: physicochemical; set-up: key: “O” is permeable (suitable for the stripe material); “A” is practically impermeable; “X” is impermeable (suitable for a base material, i.e., the non-stripe portion of a system body)
Procedure: A number of polymeric materials were tested to determine their suitability as a material of construction of an elastic system body for release of various erdafitinib formulations in a permeation-controlled release system. The materials included silicone, several thermoplastic polyurethane (TPUs) manufactured by Lubrizol Life Science (Bethlehem, PA).
In general, materials that are impermeable to erdafitinib, the API, are suitable for use as the base material in permeation systems. Materials that are permeable to the API are suitable for use as the stripe material in permeation systems. Platinum cured silicone, thermoplastic polyurethanes (TPUs), and ethylene vinyl acetate (EVA) materials were screened (Table 10). The test articles were filled with formulated API (powder or tablets), sealed, placed in foil pouches, and gamma irradiated (nominal 35 kGy). The systems were placed into simulated urine (pH 6.8), stored at 37° C., and sampled periodically. The amount of API in each sample was determined by high-performance liquid chromatography (HPLC) analysis.

C96 h [1]: BQL | C120 h [1]: BQL | stability in urine (Stability in human urine; 6 hours): sufficiently stable | recovery at 6 h (Stability in human urine; human urine spiked at 1, 3, and 5 μg/mL): 89 to 98% | fraction unbound (in vitro [2]): 0.39 | stability in urine ([3]; 6 hours): sufficiently stable | recovery at 6 h ([3]; minipig urine spiked at 1, 3, and 5 μg/mL): 92 to 93% | fraction unbound (in vitro [4]): 0.4 | Observations (release profile) ([5]; device AR-62A base with HP-60D-35 stripe): Release profile shows more pH | Observations (release profile) ([5]; device EG-80A base with HP-60D-35 stripe): Release profile shows more pH | Percent erdafitinib free in urine [6]: 97% | Daily erdafitinib recoveries, of average daily amount administered [9]: 15.7% | fraction unbound (in vitro [10]): 0.33 | concentration at 96 h (in vivo; C96 h): 56.9 ng/mL | concentration at 120 h (in vivo; C120 h): 10.7 ng/mL | pH dependency of release by drug format [11]: significant pH dependency | solubility [12]: significant pH-dependent solubility | Percent erdafitinib free in urine [13]: 95% | Percent erdafitinib free in urine [14]: 84% | stability in urine (Stability in rat urine; 6 hours): sufficiently stable | recovery at 6 h (Stability in rat urine; rat urine spiked at 1, 3, and 5 μg/mL): 90 to 95% | exposure levels in s.c. tumors lower than in orthotopic tumors [15]: Roughly 2 fold | fraction unbound (in vitro [16]): 0.79 | In Vitro Permeation ([17]; material EVA (CoTran 9712)): Δ | In Vitro Permeation ([17]; material Silicone (MED-4750)): X | In Vitro Permeation ([17]; material TPU (AC-4075A)): X | In Vitro Permeation ([17]; material TPU (AR-62A)): X | In Vitro Permeation ([17]; material TPU (EG-80A)): Δ | In Vitro Permeation ([17]; material TPU (HP-60D-35)): ◯ | In Vitro Permeation ([17]; material TPU (HP-93A-100)): ◯ | In Vitro Permeation ([17]; material TPU (PC-3575A)): X | In Vitro Permeation ([17]; material TPU (TT-1074A)): X
SMILES: COc1cc(OC)cc(N(CCNC(C)C)c2ccc3ncc(-c4cnn(C)c4)nc3c2)c1 [Erdafitinib, N-(3,5-dimethoxyphenyl)-N′-(1-methylethyl)-N-[3-(1-methyl-1H-pyrazol-4-yl)quinoxalin-6-yl]ethane-1,2-diamine]
ERK1/2 phosphorylation in UM-UC-1 tumors (ERK1/2 phosphorylation; 6 mg/kg intravesical and 20 mg/kg oral doses, 2 hours post dosing): statistically significant decrease | pERK/ERK (ERK1/2 phosphorylation; 2 hours post dose, IVES, 6 mg/kg, relative to vehicle group): 0.62 | pERK/ERK (ERK1/2 phosphorylation; 2 hours post dose, p.o., 20 mg/kg, relative to vehicle group): 0.52 | pERK/ERK (ERK1/2 phosphorylation; 7 hours post dose, IVES, 6 mg/kg, relative to vehicle group): 0.60 | pERK/ERK (ERK1/2 phosphorylation; 7 hours post dose, p.o., 20 mg/kg, relative to vehicle group): 0.61 | pERK/ERK (ERK1/2 phosphorylation; 48 hours post dose, IVES, 6 mg/kg, relative to vehicle group): 0.71 | pERK/ERK (ERK1/2 phosphorylation; 48 hours post dose, p.o., 20 mg/kg, relative to vehicle group): 0.76 | pERK/ERK (ERK1/2 phosphorylation; 120 hours post dose, IVES, 6 mg/kg, relative to 48-hour vehicle group): 0.98 | pERK/ERK (ERK1/2 phosphorylation; 120 hours post dose, p.o., 20 mg/kg, relative to 48-hour vehicle group): 1.22 | percentage change in body weight vs vehicle control ([7]; 0.5, 1.0, and 5.0 μg/mL treatment groups): Statistically non-significant difference | bladder weight vs vehicle control ([7]; 0.5, 1.0 and 5 μg/mL nominal urine concentrations): significant dose-related decrease | cage side observations ([7]; all treatment groups): no visible signs of abnormal behavior or clinical symptoms | bladder weight vs vehicle control ([8]; 1.0 μg/mL perfusate concentration): significant bladder weight reduction | bladder weight decrease vs vehicle control ([8]; 0.25 and 0.5 μg/mL dose groups): not statistically significant | percentage change in body weight vs vehicle control ([8]; 0.5, 1.0, and 5.0 μg/mL treatment groups, except Group 4 on Day 11): Statistically non-significant difference | body weight loss, maximum mean values ([8]; erdafitinib-treated group, Day 11): up to −3%

— patent publication US20240350485A1 (TARIS Biomedical LLC, priority 2021, published 2024)
